Source: patent US20080038267A1, “Treatment Of Cancer” (NEUTEC PHARMA LIMITED, priority 2004, published 2008)
Values after ≈ are worked out from the molar mass of the structure shown. Like-named read-outs stand apart in the source and are kept apart here.

Experiments:
HT29 cells [1] = assay: Checkerboard of Mycograb versus 5-FU/Folinic acid and/or Oxaliplatin, median effect analysis (CI), HT29 cells; type: cell-based, human; conditions: for Dm: median effect analysis (Calcusyn)
Text: (§1) Viable cells reduce resazurin to resorufin (pink).
CI values are shown for Fa50.
(§2) The cell lines were split and the cells counted.
as §2

HT29 cells [2] = assay: Cell Titer Blue viability, drugs without Mycograb or Mycograb alone, HT29 cells; type: cell-based, human; conditions: for IC50: 5-FU tested plus 1 mg/ml Folinic acid
Description: as §1
(§3) Cell growth was evaluated as described above.
Human colon adenocarcinoma grade 11 cell line HT29, was obtained from ECACC (ECACC number 91072201).
The cell lines were split and the cells counted. […] The next day, the cells were observed under phase contrast microscopy to ensure they had adhered to the plates and the supernatant medium removed by aspiration. 100 μl of fresh complete RPMI medium containing increasing two fold concentrations of study drug (5-FU 4.5-2400 μg/ml plus 1 mg/ml Folinic acid or Oxaliplatin 1-500 μg/ml) or medium alone (Media+2.5% DMSO for 5-FU control) was then added to the wells.

[3] = system: Hsp 90 in multi-chaperone complexes derived from tumour cells; conditions: higher than Hsp90 from normal cells (latent uncomplexed state); cited from earlier work
MCF7 cells = assay: Cell Titer Blue viability, single drug, MCF7 cells; type: cell-based, human
Description: (§4) Viable cells reduce resazurin to resorufin (pink). Cell growth was evaluated as described above. […] The cell lines were split and cells counted. […] The next day, the cells were observed under phase contrast microscopy to ensure they had adhered to the plates and the supernatant medium removed by aspiration.

K562 cells = assay: Cell Titer Blue viability, single drug, K562 cells
Description: as §1, §3
K562 was established from pleural effusion of person with chronic myelogenous leukaemia in terminal blast crisis. […] The line used in these experiments was the K562B. […] K562B has been compared to K562A and K562 C, with respect to growth kinetics, cell surface protein markers, surface antigens, cytogenetics and hemoglobin production.
(§5) The cell lines were counted. […] Fresh medium containing either two-fold increasing concentrations of Mycograb® (1.5-200 μg/ml), or medium alone was then added to the wells. The plate was returned to the incubator for 48 hours following which the cell titre blue assay was carried out, or viable counts were determined using a haemocytometer.
(§6) The cell lines were counted. […] The plates were returned to the incubator for 48 hours following which cell titre blue assays were carried out.

HS578T cells = assay: Cell Titer Blue viability, single drug, HS578T cells; type: cell-based, human
Description: as §4

KU-812 cells = assay: Cell Titer Blue viability, single drug, KU-812 cells; conditions: Mycograb on its own at 50 μg/ml
Description: as §1, §3, §5, §6

[4] = K562 cells, single drug, 48 hour incubation
[5] = Homo sapiens, MCF7 cells, single drug, 48 hour incubation, read-out: IC50
[6] = Homo sapiens, Hs-578T, HS578T cells, single drug, 48 hour incubation, read-out: IC50

## O=c1[nH]cc(F)c(=O)[nH]1 [5-FU, 5-Fluorouracil]
HT29 cells [1]; Homo sapiens, HT-29, median effect analysis (Calcusyn), read-out: Dm
  IC50: 297 µg/mL
HT29 cells [2]; Homo sapiens, HT-29, 48 hours, read-out: IC50
  IC50: 150 µg/mL

## C=CCNC1=C2C[C@@H](C)C[C@H](OC)[C@H](O)[C@@H](C)/C=C(\C)[C@H](OC(N)=O)[C@@H](OC)/C=C\C=C(/C)C(=O)NC(=CC1=O)C2=O [17AAG, 17-allylamino, 17-desmethoxygeldanamycin]
[3]
  binding affinity for 17AAG, Hsp 90 in tumour-cell multi-chaperone complexes versus Hsp90 from normal cells: 100 fold

## N.N.[Cl][Pt][Cl] [Cisplatin]
MCF7 cells; MCF7 cells, single drug, 48 hour incubation
  IC50: 6 µg/mL
K562 cells; [4]
  IC50: 12.5 µg/mL
HS578T cells; HS578T cells, single drug, 48 hour incubation
  IC50: 12.5 µg/mL

## COc1cccc2c1C(=O)c1c(O)c3c(c(O)c1C2=O)C[C@@](O)(C(C)=O)C[C@@H]3O[C@H]1C[C@H](N)[C@H](O)[C@H](C)O1 [Daunorubicin]
MCF7 cells; Homo sapiens, MCF7, 48 h
  IC50: 1 µg/mL (≈ 1.9 µM)
K562 cells; Homo sapiens, K562, 48 h
  IC50: 0.75 µg/mL (≈ 1.42 µM)
HS578T cells; Homo sapiens, Hs-578T, 48 h
  IC50: 1 µg/mL (≈ 1.9 µM)

## CC(=O)O[C@@]12CO[C@@H]1C[C@H](O)[C@@]1(C)C(=O)[C@H](O)C3=C(C)[C@@H](OC(=O)[C@H](O)[C@@H](NC(=O)OC(C)(C)C)c4ccccc4)C[C@@](O)([C@@H](OC(=O)c4ccccc4)[C@H]21)C3(C)C [Docetaxel]
MCF7 cells; [5]
  IC50: 225 µg/mL (≈ 279 µM)
K562 cells; Homo sapiens, K562, 48 h
  IC50: 70 µg/mL (≈ 86.6 µM)
HS578T cells; [6]
  IC50: 50 µg/mL (≈ 61.9 µM)

## COc1cccc2c1C(=O)c1c(O)c3c(c(O)c1C2=O)C[C@@](O)(C(=O)CO)C[C@@H]3O[C@H]1C[C@H](N)[C@H](O)[C@H](C)O1 [Doxorubicin]
MCF7 cells; [5]
  IC50: 1.75 µg/mL (≈ 3.22 µM)
K562 cells; Homo sapiens, K562, 48 h
  IC50: 1 µg/mL (≈ 1.84 µM)
HS578T cells; [6]
  IC50: 1 µg/mL (≈ 1.84 µM)

## NC(=O)NO [Hydroxyurea]
K562 cells; [4]
  IC50: never reached

## O=C1[O][Pt]2([NH][C@@H]3CCCC[C@H]3[NH]2)[O]C1=O [Oxaliplatin]
HT29 cells [1]
  Dm: 27.77
HT29 cells [2]; 48 hours
  IC50: 16 µg/mL

## CC(=O)O[C@H]1C(=O)[C@@]2(C)[C@H]([C@H](OC(=O)c3ccccc3)[C@]3(O)C[C@H](OC(=O)[C@H](O)[C@@H](NC(=O)c4ccccc4)c4ccccc4)C(C)=C1C3(C)C)[C@]1(OC(C)=O)CO[C@@H]1C[C@@H]2O [Paclitaxel]
MCF7 cells; [5]
  IC50: 225 µg/mL (≈ 263 µM)
K562 cells; Homo sapiens, K562, 48 h
  IC50: 32 µg/mL (≈ 37.5 µM)

B1: Mycograb: anti-Hsp90 antibody disclosed in WO 01/76627, sequence of SEQ ID NO: 2, specific for epitope of peptide SEQ ID NO: 1 (protein)
chain: HMAEVQLVESGAEVKKPGESLRISCKGSGCIISSYWISWVRQMPGKGLEWMGKIDPGDSYINYSPSFQGHVTISADKSINTAYLQWNSLKASDTAMYYCARGGRDFGDSFDYWGQGTLVTVSSGGGGSGGGGSGGGGSDVVMTQSPSFLSAFVGDRITITCRASSGISRYLAWYQQAPGKAPKLLIYAASTLQTGVPSRFSGSGSGTEFTLTINSLQPEDFATYYCQHLNSYPLTFGGGTKVDIKRAA
K562 cells; K562 cells, Mycograb on its own at 12.5 μg/ml
  reduction in cell viability: 40%
HS578T cells; HS578T cells, increasing concentrations up to 400 mg/l
  sensitivity of cell line to Mycograb alone: insensitive
HT29 cells [1]
  Dm: 96.47
HT29 cells [2]; Mycograb on its own at 125 μg/ml
  reduction in cell viability: 50%
KU-812 cells
  reduction in cell viability: 40%
